Laboratory results: US20170216179A1, “COSMETIC AND/OR DERMATOLOGICAL COMPOSITION FOR COLOURING THE SKIN” (AFFICHEM, priority 2014, published 2017)

Tests used:
tyrosinase [1] = assay: Gene expression by RT-qPCR, tyrosinase; type: cell-based, murine; conditions: 1 μM, 24 h
Protocol: (§1) Cells were seeded and treated for 24 h with the molecules the action of which we want to study, that is to say here, with DDA (1 μM), on the one hand, and with L7DDA (0.1 or 1 or 2.5 or 5 μM) on the other. The results were compared with irradiated ultraviolet cells as in Example 6.
(§2) To quantify the expression of these genes, RNA extraction from cells was performed. Melanocytes were treated for 24 h with the active molecule or the control agent. 1 mL of Trizol® was added; after 5 min at room temperature, the totality was placed in an Eppendorf tube. 200 μL of CHCl3 were added at 4° C. The Eppendorf tubes were stirred manually, by turning them during 15 sec, left for 5 min at room temperature and then centrifuged at 16000 g at 4° C. for 10 min. The colourless aqueous phase was isolated. 500 μL of isopropanol (−20° C.) were added. The Eppendorf tubes were stirred manually, by turning them during 15 sec, left for 15 min at room temperature and then centrifuged at 16200 g at 4° C. for 10 min. The supernatant was removed. The pellet was washed with 1 mL of 75% ethanol (−20° C.). After centrifugation at 16000 g at 4° C. for 5 min, the supernatant was removed. 10 min after drying, the pellet was resuspended with 30 μL of RNAase-free water. The quantity and purity of RNA were estimated by spectrophotometry (230, 260 and 280 nm). […]

TRP-2 = assay: Gene expression by RT-qPCR, TRP-2; type: cell-based, murine; conditions: 1 μM, 24 h
Protocol: as §1, §2

[2] = test system: healthy murine melanocytes; assay: Quantification of melanin synthesized by melanocytes; type: cell-based; conditions: cells treated 24 h; relative to control (=100%); FIG. 3
Protocol: Quantification of synthesized melanin by healthy murine melanocytes was performed according to the protocol described by Ando et al. (J. Lipid Res., 1999, 40, 1312).
Cells were seeded and treated for 24 h with the test product or the used vehicle (ethanol) and with, as a positive control, exposure to a dose of 20 mJ/cm^2 of ultraviolet radiation.
5 Million cells were isolated after centrifugation at 1500 rpm for 5 min at 4° C. The pellet was washed twice with PBS and then transferred into an Eppendorf tube and centrifuged at 5000 g for 5 min. The supernatant was removed. 200 μL of water and 1 mL of EtOH/ether (1/1) were added (melanin was insoluble in this mixture). After 15 min at room temperature, the totality was again centrifuged at 5000 g for 5 min; the supernatant was removed. The pellet was then taken up with 300 μL of a solution of NaOH(1M) in H2O/DMSO 90/10 and placed at 80° C. for one hour. Absorbance was measured at 470 nm. The amount of synthesized melanin was expressed based on the control (=100%).

TRP-1 = assay: Gene expression by RT-qPCR, TRP-1; type: cell-based, murine; conditions: 1 μM, 24 h
Protocol: as §1, §2

tyrosinase [3] = assay: Stimulation of tyrosinase activity in melanocytes (L-DOPA oxidation); type: cell-based, murine; conditions: cells treated 24 h; with respect to the control (=100%); FIG. 4
Protocol: The study was conducted on healthy murine melanocytes. The results were compared with those obtained with a positive control subjected to a dose of 20 mJ/cm^2 of ultraviolet radiation. The cells were treated for 24 h with either the vehicle used (ethanol) or with the test product. The tyrosinase activity was quantified according to the protocol described by Ando et al. (J. Lipid Res. 1999, 40, 1312) as explained below.
5 Million cells were isolated after centrifugation at 1500 rpm for 5 min at 4° C. The pellet was washed twice with PBS and then transferred into an Eppendorf tube and centrifuged at 5000 g for 5 min. The supernatant was removed. 1 mL of 0.5% by mass sodium deoxycholate solution was added (cell lysis). After 15 min at 0° C., 3 mL of a solution of 0.1% by mass of L-DOPA in 0.1M phosphate buffer (pH 6.8) were added. The whole was placed at 37° C. for 10 min. Tyrosinase activity was spectrophotometrically analysed by following the oxidation of L-DOPA to DOPAchrome. Absorbance was measured at 475 nm. The tyrosinase activity was expressed based on the control (=100%), which determines the cell basal tyrosinase activity.

## CC(C)CCC[C@@H](C)[C@H]1CC[C@H]2[C@@H]3C[C@@H](NCCc4c[nH]cn4)[C@@]4(O)C[C@@H](O)CC[C@]4(C)[C@H]3CC[C@]12C [DDA, 5α-hydroxy-6β-[2-(1H-imidazol-4-yl)ethylamino]cholestan-3β-ol]
Tyrosinase [1]
  ΔΔCT (tyrosinase): 6.09
TRP-2
  ΔΔCT (TRP-2): 6.97
[2]
  synthesis of melanin: increase
TRP-1
  ΔΔCT (TRP-1): 13.45
Tyrosinase [3]
  tyrosinase activity in cells: increased
